For 13 compounds, Ki results are on record in patent US20190185518A9, “WARHEAD-CONTAINING PEPTIDOMIMETIC MACROCYCLES AS MODULATORS OF BFL-1” (AILERON Therapeutics, Inc., priority 2017, published 2019).

Starred links: 1 amine or outer side, 2 acyl side, 3 side chain; linkers in the order of their positions; H or OH if unused. Positions of bridges follow the written chain, without caps; N, C: chain ends. Non-standard residues stand in square brackets, D forms with d. Residues, ends and D or L forms follow the SMILES beside them. Phe(4-F) = N[C@@H](Cc1ccc(F)cc1)C(=O)O; X1 = CC(C)CCC[C@H](N[*:1])C(=O)[*:2]; tBuAla = CC(C)(C)C[C@H](N)C(=O)O; R8 = C=CCCCCCC[C@@](C)(N)C(=O)O; S5 = C=CCCC[C@](C)(N)C(=O)O

This test has as its target Mcl-1 (Homo sapiens, UniProt Q07820). The test is described as follows: Ki determination for Mcl-1 (BCL-2 family binding spectrum). The following applies: read-out: Ki MCL-1. The text has this:
To assess the binding and affinity of compounds that antagonize the interaction between a peptide and an acceptor protein, a fluorescence polarization assay (FPA) utilizing a fluoresceinated peptidomimetic macrocycle derived from a peptidomimetic precursor sequence is used, for example. The FPA technique measures the molecular orientation and mobility using polarized light and fluorescent tracer. […] A compound that antagonizes the interaction between the fluoresceinated peptidomimetic macrocycle and an acceptor protein will be detected in a competitive binding FPA experiment.
Antagonist binding activity is measured, for example, by fluorescence polarization on a luminescence spectrophotometer (e.g. Perkin-Elmer LS50B). Kd values may be determined by nonlinear regression analysis using, for example, Graphpad Prism software (GraphPad Software, Inc., San Diego, Calif.).

Chain of Mcl-1 (Q07820 whole entry, species assumed): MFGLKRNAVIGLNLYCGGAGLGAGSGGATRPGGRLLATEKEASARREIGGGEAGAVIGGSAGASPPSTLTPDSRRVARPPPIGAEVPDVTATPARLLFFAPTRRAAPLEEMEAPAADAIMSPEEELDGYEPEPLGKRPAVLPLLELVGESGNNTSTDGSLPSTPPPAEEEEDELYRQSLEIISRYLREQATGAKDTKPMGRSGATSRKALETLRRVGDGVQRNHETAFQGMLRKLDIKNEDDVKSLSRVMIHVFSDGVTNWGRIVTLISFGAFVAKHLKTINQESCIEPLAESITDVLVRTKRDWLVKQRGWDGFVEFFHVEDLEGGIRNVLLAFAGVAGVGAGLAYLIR

Consider `CC[C@H](C)[C@H](NC(C)=O)C(=O)N[C@@H](Cc1c[nH]c2ccccc12)C(=O)N[C@H](C(=O)N[C@@H](C)C(=O)N[C@@H](CCC(N)=O)C(=O)N[C@@H](C)C(=O)N[C@@H](CC(C)C)C(=O)N[C@@H](CCCNC(=N)N)C(=O)N[C@]1(C)CCCCCCC=CCCC[C@@](C)(C(=O)N[C@@H](Cc2ccc(O)cc2)C(=O)N[C@@H](Cc2ccc(O)cc2)C(=O)N[C@@H](C)C(=O)N[C@@H](CCCNC(=N)N)C(=O)N[C@@H](CCCNC(=N)N)C(N)=O)NC(=O)[C@H](CC(N)=O)NC(=O)[C@H](Cc2ccccc2)NC(=O)[C@H](CCC(=O)O)NC(=O)[C@H](CC(=O)O)NC(=O)CNC(=O)[C@H]([C@@H](C)CC)NC1=O)[C@@H](C)CC` [compound 1628] (Ac-IWIAQALR[R8]IGDEFN[S5]YYARR-NH2; staple 9-16), for which the Ki was 10.6 nM.

With `CC[C@H](C)[C@H](NC(C)=O)C(=O)N[C@@H](C)C(=O)N[C@H](C(=O)N[C@@H](C)C(=O)N[C@@H](CCC(N)=O)C(=O)N[C@@H](C)C(=O)N[C@@H](CC(C)C)C(=O)N[C@@H](CCCNC(=N)N)C(=O)N[C@]1(C)CCCCCCC=CCCC[C@@](C)(C(=O)N[C@@H](Cc2ccc(O)cc2)C(=O)N[C@@H](Cc2ccc(O)cc2)C(=O)N[C@@H](C)C(N)=O)NC(=O)[C@H](CC(N)=O)NC(=O)[C@H](Cc2ccccc2)NC(=O)[C@H](C)NC(=O)[C@H](CC(=O)O)NC(=O)CNC(=O)[C@H]([C@@H](C)CC)NC1=O)[C@@H](C)CC` [compound 1648] (Ac-IAIAQALR[R8]IGDAFN[S5]YYA-NH2; staple 9-16), the Ki was found to be 19.7 nM.

As to `CC[C@H](C)[C@H](NC(C)=O)C(=O)N[C@@H](Cc1c[nH]c2ccccc12)C(=O)N[C@@H](CCCC(C)C)C(=O)N[C@@H](C)C(=O)N[C@@H](CCC(N)=O)C(=O)N[C@@H](C)C(=O)N[C@@H](CC(C)C)C(=O)N[C@@H](CCCNC(=N)N)C(=O)N[C@]1(C)CCCCCCC=CCCC[C@@](C)(C(=O)N[C@@H](Cc2ccc(O)cc2)C(=O)N[C@@H](Cc2ccc(O)cc2)C(=O)N[C@@H](C)C(N)=O)NC(=O)[C@H](CC(N)=O)NC(=O)[C@H](Cc2ccccc2)NC(=O)[C@H](C)NC(=O)[C@H](CC(=O)O)NC(=O)CNC(=O)[C@H]([C@@H](C)CC)NC1=O` [compound 1678] (Ac-IW[X1]AQALR[R8]IGDAFN[S5]YYA-NH2; staple 9-16), the Ki was determined as 21.2 nM.

As for `CC[C@H](C)[C@H](NC(C)=O)C(=O)N[C@@H](Cc1c[nH]c2ccccc12)C(=O)N[C@H](C(=O)N[C@@H](C)C(=O)N[C@@H](CCC(N)=O)C(=O)N[C@@H](C)C(=O)N[C@@H](CC(C)C)C(=O)N[C@@H](CCCNC(=N)N)C(=O)N[C@]1(C)CCCCCC/C=C\CCC[C@@](C)(C(=O)N[C@@H](Cc2ccc(O)cc2)C(=O)N[C@@H](Cc2ccc(O)cc2)C(=O)N[C@@H](C)C(N)=O)NC(=O)[C@H](CC(N)=O)NC(=O)[C@H](Cc2ccccc2)NC(=O)[C@H](C)NC(=O)[C@H](CC(=O)O)NC(=O)CNC(=O)[C@H](CC(C)(C)C)NC1=O)[C@@H](C)CC` [compound 1701] (Ac-IWIAQALR[R8][tBuAla]GDAFN[S5]YYA-NH2; staple (Z) 9-16), the Ki is 13.7 nM.

For `CC[C@H](C)[C@H](NC(C)=O)C(=O)N[C@@H](Cc1c[nH]c2ccccc12)C(=O)N[C@H](C(=O)N[C@@H](C)C(=O)N[C@@H](CCC(N)=O)C(=O)N[C@@H](C)C(=O)N[C@@H](CC(C)C)C(=O)N[C@@H](CCCNC(=N)N)C(=O)N[C@]1(C)CCCCCCC=CCCC[C@@](C)(C(=O)N[C@@H](Cc2ccc(O)cc2)C(=O)N[C@@H](Cc2ccc(F)cc2)C(=O)N[C@@H](C)C(N)=O)NC(=O)[C@H](CC(N)=O)NC(=O)[C@H](Cc2ccccc2)NC(=O)[C@H](C)NC(=O)[C@H](CC(=O)O)NC(=O)CNC(=O)[C@H]([C@@H](C)CC)NC1=O)[C@@H](C)CC` [compound 1710] (Ac-IWIAQALR[R8]IGDAFN[S5]Y[Phe(4-F)]A-NH2; staple 9-16), the Ki amounted to 4.8 nM.

As for `CC[C@H](C)[C@H](NC(=O)[C@H](Cc1c[nH]c2ccccc12)NC(=O)[C@H](CCC(=O)O)NC(C)=O)C(=O)N[C@@H](C)C(=O)N[C@@H](C)C(=O)N[C@@H](C)C(=O)N[C@@H](CC(C)C)C(=O)N[C@@H](CCCNC(=N)N)C(=O)N[C@]1(C)CCCCCCC=CCCC[C@@](C)(C(=O)N[C@@H](Cc2ccc(O)cc2)C(=O)N[C@@H](Cc2ccc(O)cc2)C(=O)N[C@@H](C)C(N)=O)NC(=O)[C@H](CC(N)=O)NC(=O)[C@H](Cc2ccccc2)NC(=O)[C@H](C)NC(=O)[C@H](CC(=O)O)NC(=O)CNC(=O)[C@H]([C@@H](C)CC)NC1=O` [compound 1716] (Ac-EWIAAALR[R8]IGDAFN[S5]YYA-NH2; staple 9-16), the Ki is 2.2 nM.

Take `CC[C@H](C)[C@H](NC(=O)[C@H](Cc1c[nH]c2ccccc12)NC(=O)[C@H](CCCCN)NC(C)=O)C(=O)N[C@@H](C)C(=O)N[C@@H](C)C(=O)N[C@@H](C)C(=O)N[C@@H](CC(C)C)C(=O)N[C@@H](CCCNC(=N)N)C(=O)N[C@]1(C)CCCCCCC=CCCC[C@@](C)(C(=O)N[C@@H](Cc2ccc(O)cc2)C(=O)N[C@@H](Cc2ccc(O)cc2)C(=O)N[C@@H](C)C(N)=O)NC(=O)[C@H](CC(N)=O)NC(=O)[C@H](Cc2ccccc2)NC(=O)[C@H](C)NC(=O)[C@H](CC(=O)O)NC(=O)CNC(=O)[C@H]([C@@H](C)CC)NC1=O` [compound 1718] (Ac-KWIAAALR[R8]IGDAFN[S5]YYA-NH2; staple 9-16): the Ki is 3.9 nM.

For the compound `CC[C@H](C)[C@H](NC(=O)[C@H](Cc1c[nH]c2ccccc12)NC(=O)[C@H](Cc1c[nH]cn1)NC(C)=O)C(=O)N[C@@H](C)C(=O)N[C@@H](C)C(=O)N[C@@H](C)C(=O)N[C@@H](CC(C)C)C(=O)N[C@@H](CCCNC(=N)N)C(=O)N[C@]1(C)CCCCCCC=CCCC[C@@](C)(C(=O)N[C@@H](Cc2ccc(O)cc2)C(=O)N[C@@H](Cc2ccc(O)cc2)C(=O)N[C@@H](C)C(N)=O)NC(=O)[C@H](CC(N)=O)NC(=O)[C@H](Cc2ccccc2)NC(=O)[C@H](C)NC(=O)[C@H](CC(=O)O)NC(=O)CNC(=O)[C@H]([C@@H](C)CC)NC1=O` [compound 1719] (Ac-HWIAAALR[R8]IGDAFN[S5]YYA-NH2; staple 9-16), the Ki came out at 3.6 nM.

As for `CC[C@H](C)[C@H](NC(=O)[C@H](Cc1c[nH]c2ccccc12)NC(=O)[C@H](CO)NC(C)=O)C(=O)N[C@@H](C)C(=O)N[C@@H](C)C(=O)N[C@@H](C)C(=O)N[C@@H](CC(C)C)C(=O)N[C@@H](CCCNC(=N)N)C(=O)N[C@]1(C)CCCCCCC=CCCC[C@@](C)(C(=O)N[C@@H](Cc2ccc(O)cc2)C(=O)N[C@@H](Cc2ccc(O)cc2)C(=O)N[C@@H](C)C(N)=O)NC(=O)[C@H](CC(N)=O)NC(=O)[C@H](Cc2ccccc2)NC(=O)[C@H](C)NC(=O)[C@H](CC(=O)O)NC(=O)CNC(=O)[C@H]([C@@H](C)CC)NC1=O` [compound 1720] (Ac-SWIAAALR[R8]IGDAFN[S5]YYA-NH2; staple 9-16), the Ki worked out at 3.9 nM.

With `CC[C@H](C)[C@H](NC(=O)[C@H](Cc1c[nH]c2ccccc12)NC(=O)[C@H](CCC(N)=O)NC(C)=O)C(=O)N[C@@H](C)C(=O)N[C@@H](C)C(=O)N[C@@H](C)C(=O)N[C@@H](CC(C)C)C(=O)N[C@@H](CCCNC(=N)N)C(=O)N[C@]1(C)CCCCCCC=CCCC[C@@](C)(C(=O)N[C@@H](Cc2ccc(O)cc2)C(=O)N[C@@H](Cc2ccc(O)cc2)C(=O)N[C@@H](C)C(N)=O)NC(=O)[C@H](CC(N)=O)NC(=O)[C@H](Cc2ccccc2)NC(=O)[C@H](C)NC(=O)[C@H](CC(=O)O)NC(=O)CNC(=O)[C@H]([C@@H](C)CC)NC1=O` [compound 1721] (Ac-QWIAAALR[R8]IGDAFN[S5]YYA-NH2; staple 9-16), the inhibition constant (Ki) is 4.8 nM.

Turning to `CC[C@H](C)[C@H](NC(=O)[C@H](Cc1c[nH]c2ccccc12)NC(=O)[C@H](C)NC(C)=O)C(=O)N[C@@H](C)C(=O)N[C@@H](C)C(=O)N[C@@H](C)C(=O)N[C@@H](CC(C)C)C(=O)N[C@@H](CCCNC(=N)N)C(=O)N[C@]1(C)CCCCCCC=CCCC[C@@](C)(C(=O)N[C@@H](Cc2ccc(O)cc2)C(=O)N[C@@H](Cc2ccc(O)cc2)C(=O)N[C@@H](C)C(N)=O)NC(=O)[C@H](CC(N)=O)NC(=O)[C@H](Cc2ccccc2)NC(=O)[C@H](C)NC(=O)[C@H](CC(=O)O)NC(=O)CNC(=O)[C@H]([C@@H](C)CC)NC1=O` [compound 1722] (Ac-AWIAAALR[R8]IGDAFN[S5]YYA-NH2; staple 9-16), the inhibitory constant (Ki) amounted to 3.8 nM.

In the case of `CC[C@H](C)[C@H](NC(C)=O)C(=O)N[C@@H](Cc1c[nH]cn1)C(=O)N[C@H](C(=O)N[C@@H](C)C(=O)N[C@@H](C)C(=O)N[C@@H](C)C(=O)N[C@@H](CC(C)C)C(=O)N[C@@H](CCCNC(=N)N)C(=O)N[C@]1(C)CCCCCCC=CCCC[C@@](C)(C(=O)N[C@@H](Cc2ccc(O)cc2)C(=O)N[C@@H](Cc2ccc(O)cc2)C(=O)N[C@@H](C)C(N)=O)NC(=O)[C@H](CC(N)=O)NC(=O)[C@H](Cc2ccccc2)NC(=O)[C@H](C)NC(=O)[C@H](CC(=O)O)NC(=O)CNC(=O)[C@H]([C@@H](C)CC)NC1=O)[C@@H](C)CC` [compound 1727] (Ac-IHIAAALR[R8]IGDAFN[S5]YYA-NH2; staple 9-16), the inhibition constant (Ki) turned out to be 6.6 nM.

Take `CC[C@H](C)[C@H](NC(C)=O)C(=O)N[C@@H](CC(C)C)C(=O)N[C@H](C(=O)N[C@@H](C)C(=O)N[C@@H](C)C(=O)N[C@@H](C)C(=O)N[C@@H](CC(C)C)C(=O)N[C@@H](CCCNC(=N)N)C(=O)N[C@]1(C)CCCCCCC=CCCC[C@@](C)(C(=O)N[C@@H](Cc2ccc(O)cc2)C(=O)N[C@@H](Cc2ccc(O)cc2)C(=O)N[C@@H](C)C(N)=O)NC(=O)[C@H](CC(N)=O)NC(=O)[C@H](Cc2ccccc2)NC(=O)[C@H](C)NC(=O)[C@H](CC(=O)O)NC(=O)CNC(=O)[C@H]([C@@H](C)CC)NC1=O)[C@@H](C)CC` [compound 1730] (Ac-ILIAAALR[R8]IGDAFN[S5]YYA-NH2; staple 9-16): the Ki was found to be 10.2 nM.

For orientation: Ki means the equilibrium dissociation constant of an inhibitor or competing ligand from its target.
